{
  "source": "ChEMBL document CHEMBL3124821",
  "about": "“Activity of caffeic acid derivatives against Candida albicans biofilm” (Bioorg Med Chem Lett, 2014)",
  "key": {"Candida albicans [1]": {"test_system": "Candida albicans", "experiment": "Inhibition of biofilm formation of Candida albicans ATCC 10231 by XTT reduction assay", "format": "functional"}, "Candida albicans [2]": {"test_system": "Candida albicans", "experiment": "Antifungal activity against planktonically grown Candida albicans ATCC 10231 by CLSI M27 A3 broth microdilution method", "format": "functional"}, "Candida albicans [3]": {"test_system": "Candida albicans", "experiment": "Antifungal activity against early stage preformed Candida albicans ATCC 10231 biofilm by XTT reduction assay", "format": "functional"}, "Candida albicans [4]": {"test_system": "Candida albicans", "experiment": "Antifungal activity against mature preformed Candida albicans ATCC 10231 biofilm by XTT reduction assay", "format": "functional"}, "in vitro": {"experiment": "in vitro", "settings": "human, NCI-H292 cells", "description": "Cytotoxicity against human NCI-H292 cells assessed as reduction in viable cells by MTT assay"}, "Candida albicans [5]": {"test_system": "Candida albicans", "experiment": "Ratio of compound MIC to fluconazole MIC for biofilm formation of Candida albicans ATCC 10231 by XTT reduction assay", "format": "functional"}},
  "data": [
    {"smiles": "CCCOC(=O)/C=C/c1ccc(O)c(O)c1", "values": [
      {"measurement": "MIC50", "setting": "Candida albicans [1]", "result": 256, "unit": "µg/mL"},
      {"measurement": "MIC50", "setting": "Candida albicans [2]", "result": 128, "unit": "µg/mL"},
      {"measurement": "MIC50", "setting": "Candida albicans [3]", "result": 256, "unit": "µg/mL"},
      {"measurement": "MIC50", "setting": "Candida albicans [4]", "result": 256, "unit": "µg/mL"}
    ]},
    {"smiles": "COc1ccc(OC(=O)/C=C/c2ccc(O)c(O)c2)cc1F", "values": [
      {"measurement": "MIC50", "setting": "Candida albicans [1]", "result": 256, "unit": "µg/mL"},
      {"measurement": "MIC50", "setting": "Candida albicans [2]", "result": 128, "unit": "µg/mL"},
      {"measurement": "MIC50", "setting": "Candida albicans [4]", "result": 256, "unit": "µg/mL"}
    ]},
    {"smiles": "O=C(/C=C/c1ccc(O)c(O)c1)OCc1ccc([N+](=O)[O-])o1", "values": [
      {"measurement": "CC50", "setting": "in vitro", "result": 192, "unit": "µg/mL"},
      {"measurement": "MIC50", "setting": "Candida albicans [1]", "result": 32, "unit": "µg/mL"},
      {"measurement": "MIC50", "setting": "Candida albicans [2]", "result": 16, "unit": "µg/mL"},
      {"measurement": "MIC50", "setting": "Candida albicans [3]", "result": 64, "unit": "µg/mL"},
      {"measurement": "MIC50", "setting": "Candida albicans [4]", "result": 128, "unit": "µg/mL"}
    ]},
    {"smiles": "O=C(/C=C/c1ccccc1)OCc1ccc([N+](=O)[O-])o1", "values": [
      {"measurement": "CC50", "setting": "in vitro", "result": 174, "unit": "µg/mL"},
      {"measurement": "MIC50", "setting": "Candida albicans [1]", "result": 32, "unit": "µg/mL"},
      {"measurement": "MIC50", "setting": "Candida albicans [2]", "result": 2, "unit": "µg/mL"},
      {"measurement": "MIC50", "setting": "Candida albicans [3]", "result": 32, "unit": "µg/mL"},
      {"measurement": "MIC50", "setting": "Candida albicans [4]", "result": 64, "unit": "µg/mL"}
    ]},
    {"smiles": "O=C(CCc1ccc(O)c(O)c1)OCc1ccc([N+](=O)[O-])o1", "values": [
      {"measurement": "CC50", "setting": "in vitro", "result": 257, "unit": "µg/mL"},
      {"measurement": "MIC50", "setting": "Candida albicans [1]", "result": 128, "unit": "µg/mL"},
      {"measurement": "MIC50", "setting": "Candida albicans [2]", "result": 64, "unit": "µg/mL"},
      {"measurement": "MIC50", "setting": "Candida albicans [3]", "result": 128, "unit": "µg/mL"},
      {"measurement": "MIC50", "setting": "Candida albicans [4]", "result": 128, "unit": "µg/mL"}
    ]},
    {"smiles": "O=C(OCc1ccc([N+](=O)[O-])o1)c1ccc(O)c(O)c1", "values": [
      {"measurement": "CC50", "setting": "in vitro", "result": 132, "unit": "µg/mL"},
      {"measurement": "MIC50", "setting": "Candida albicans [1]", "result": 16, "unit": "µg/mL"},
      {"measurement": "Ratio", "setting": "Candida albicans [5]", "result": 8},
      {"measurement": "MIC50", "setting": "Candida albicans [2]", "result": 16, "unit": "µg/mL"},
      {"measurement": "MIC50", "setting": "Candida albicans [3]", "result": 64, "unit": "µg/mL"},
      {"measurement": "MIC50", "setting": "Candida albicans [4]", "result": 64, "unit": "µg/mL"}
    ]},
    {"smiles": "CC(C)COC(=O)/C=C/c1ccc(O)c(O)c1", "values": [
      {"measurement": "MIC50", "setting": "Candida albicans [1]", "result": 256, "unit": "µg/mL"},
      {"measurement": "MIC50", "setting": "Candida albicans [2]", "result": 128, "unit": "µg/mL"},
      {"measurement": "MIC50", "setting": "Candida albicans [4]", "result": 256, "unit": "µg/mL"}
    ]},
    {"smiles": "O=C(O)/C=C/c1ccc(O)c(O)c1", "note": "[CAFFEIC ACID]", "values": [
      {"measurement": "MIC50", "setting": "Candida albicans [1]", "result": 256, "unit": "µg/mL"},
      {"measurement": "MIC50", "setting": "Candida albicans [2]", "result": 128, "unit": "µg/mL"},
      {"measurement": "MIC50", "setting": "Candida albicans [3]", "result": 256, "unit": "µg/mL"},
      {"measurement": "MIC50", "setting": "Candida albicans [4]", "result": 256, "unit": "µg/mL"}
    ]},
    {"smiles": "CCOC(=O)/C=C/c1ccc(O)c(O)c1", "note": "[ETHYL CAFFEATE]", "values": [
      {"measurement": "MIC50", "setting": "Candida albicans [1]", "result": 256, "unit": "µg/mL"},
      {"measurement": "MIC50", "setting": "Candida albicans [2]", "result": 128, "unit": "µg/mL"},
      {"measurement": "MIC50", "setting": "Candida albicans [4]", "result": 256, "unit": "µg/mL"}
    ]},
    {"smiles": "OC(Cn1cncn1)(Cn1cncn1)c1ccc(F)cc1F", "note": "[FLUCONAZOLE]", "values": [
      {"measurement": "MIC50", "setting": "Candida albicans [1]", "result": 128, "unit": "µg/mL"},
      {"measurement": "MIC50", "setting": "Candida albicans [2]", "result": 0.5, "unit": "µg/mL"},
      {"measurement": "MIC50", "setting": "Candida albicans [3]", "result": 256, "unit": "µg/mL"},
      {"measurement": "MIC50", "setting": "Candida albicans [4]", "result": 256, "unit": "µg/mL"}
    ]},
    {"smiles": "COC(=O)/C=C/c1ccc(O)c(O)c1", "note": "[METHYLCAFFEATE]", "values": [
      {"measurement": "MIC50", "setting": "Candida albicans [1]", "result": 256, "unit": "µg/mL"},
      {"measurement": "MIC50", "setting": "Candida albicans [2]", "result": 128, "unit": "µg/mL"},
      {"measurement": "MIC50", "setting": "Candida albicans [4]", "result": 256, "unit": "µg/mL"}
    ]}
  ]
}
